Assay [1] concerns S2+ InsP3R-1. In words: Potentiation of CCh-induced Ca2+ release after PKA activation (forskolin), S2+ InsP3R-1 constructs in DT-40 3ko cells. The conditions noted are these: for effect of forskolin treatment on CCh-induced [Ca^2+]i peak: 20 μM forskolin, threshold CCh; for Ca^2+ release after PKA activation: S2 + InsP3R-1 constructs, Table 2. Format: cell-based, rat. Here is the method: DT-40 cells lacking all three InsP3 receptor subtypes DT-40 3ko were transfected using electroporation, 350 V and 950 μF. 2×10^7 cells were co-transfected with 25 μg of the InsP3R cDNA, 25 μg of the muscarinic type 3 (M3) receptor, and 4 μg of the red fluorescent protein plasmid pHcRed1-N1. Cells were incubated with DNA in 500 μL of Optimem media on ice for 10 minutes. The cell/DNA mixture was electroporated, incubated on ice for 30 minutes, brought up to 5 ml with Optimem and placed in a 5% C02 incubator at 39° C. for 5 hours. The cells were then centrifuged and resuspended in 12 ml of complete RPMI media. Transfection efficiency was typically ˜20%. Experiments were performed within 32 hours of transfection.
(§1) Transfected DT-40 3ko cells were washed once in a HEPES-buffered physiological saline solution (HEPES-PSS) containing (in mM) 5.5 glucose, 137 NaCl, 0.56 MgCl2, 4.7 KCl, 1 Na2HPO4, 10 HEPES (pH 7.4), 1.2 CaCl2 and 1% w/v Bovine Serum Albumin. Cells were then resuspended in BSA HEPES-PSS with 1 μM Fura-2 (AM), placed on a 15 mm glass coverslip in a low volume perfusion chamber (Warner Instruments) and allowed to adhere for 30 minutes at room temperature. Cells were perfused continually for 10 minutes with HEPES-PSS before experimentation to allow Fura-2 de-esterification. A field of cells for each experiment was chosen that contained a wide range of transfection efficiency based upon the intensity of red fluorescence emitted when excited at 560 nm. [Ca^2+]i imaging was performed essentially as previously described using an inverted epifluorescence Nikon microscope with a 40× oil immersion objective lens (numerical aperture, 1.3). Cells were excited alternately with light at 340 and 380 nm (±10 mn bandpass filters, Chroma) using a monochrometer (TILL Photonics). Fluorescence images were captured and digitized with a digital camera driven by TILL Photonics software. Images were captured every 2 seconds with an exposure of 35 ms and no binning. 340/380 ratio images were calculated online and stored immediately to hard disk.
(§2) The effects of treatment were determined by normalizing the peak change in fluorescence ratio by stimulation following forskolin or 8-Br cGMP exposure to that of stimulation in control HEPES-PSS. Thus, pooled data represents a normalized fold increase over control for the treated trial. Two tailed heteroscedastic t-tests with P values<0.05 were considered to have statistical significance.
Experiments were performed in DT-40 3ko cells transfected with S2^+ InsP3R-1. Since there are no reports of Gαq coupled receptors expressed in DT-40 cells, initial experiments were performed eliciting [Ca^2+]i changes by stimulating the endogenous B cell receptor with α-IgM antibody. […] Thus, in all further experiments, DT-40 3ko cells were co-transfected with the M3 receptor, and HcRed to facilitate identification of transfected cells (inset FIG. 1). Stimulation of M3 receptors with the muscarinic agonist carbachol (CCh), provided a convenient means of stimulating [Ca^2+]i changes, presumably through Gαq-induced activation of phospholipase C and production of InsP3. […] The potentiation was most marked when threshold elevations in [Ca^2+]i were evoked by the initial exposure to CCh and therefore only cells in which the initial CCh treatment evoked a Δ 340/380 ratio of<0.2 ratio units were included for analysis. […] [Ca^2+]i changes were never evoked by CCh treatment in cells transfected with only M3 cDNA in the absence of InsP3R or likewise InsP3R with no M3 cDNA.
The effects of treatment were determined by normalizing the peak change in fluorescence ratio by stimulation following forskolin or 8-Br-cGMP exposure to that of stimulation in control HEPES-PSS. Thus, pooled data represent a normalized fold increase over control for the treated trial. In all cases where statistical significance is indicated, two-tailed heteroscedastic t tests were performed. […]

Assay [2] has as its system S2+ InsP3R-1. In words: Potentiation of CCh-induced Ca2+ release after PKG activation (8-Br cGMP), S2+ InsP3R-1 constructs in DT-40 3ko cells. It is filed as cell-based, rat. The conditions noted are these: for effect of 8-Br cGMP treatment on CCh-induced Ca^2+ release: 10 μM 8-Br cGMP, threshold CCh; for Ca^2+ release after PKG activation: S2 + InsP3R-1 constructs, Table 2. As for the experimental part: as §1, §2
Similar experiments were performed to assess the effects on Ca^2+ release of phosphorylating InsP3R-1 with PKG. Cells transfected with S2^+ InsP3R-1 together with M3 receptor and HcRed were stimulated with low, threshold concentrations of CCh (25-50 nM) followed by a 10 min treatment with 10 μM 8-Br cGMP, a specific activator of PKG [48]. […] In a similar fashion to PKA activation, this was manifested as an increase in the CCh-induced initial peak (FIG. 4A and pooled data FIG. 4E).
The effects of treatment were determined by normalizing the peak change in fluorescence ratio by stimulation following forskolin or 8-Br-cGMP exposure to that of stimulation in control HEPES-PSS. Thus, pooled data represent a normalized fold increase over control for the treated trial. In all cases where statistical significance is indicated, two-tailed heteroscedastic t tests were performed. P values<0.05 were considered to indicate statistical significance and are denoted by an asterisk in the figures.
Despite these differences, experiments were performed to define further the phosphorylation sites important for regulation of Ca^2+ release by PKG. […] In contrast, in cells expressing S2+SE no effect on CCh-induced Ca^2+ release following activation of PKG was observed (FIG. 23C and pooled data in FIG. 23D).

Entries after “also recorded” stand apart in the source; their conditions may differ.

Regarding “S2+ES: S2+ InsP3R-1, long splice variant with S1589E”, in the assay on S2+ InsP3R-1 [1], the “effect of forskolin treatment on CCh-induced [Ca^2+]i peak” value was “marked potentiation; also recorded: markedly potentiated” and the “Ca^2+ release after PKA activation” value is recorded as “Enhanced”. In the assay with S2+ InsP3R-1 [2], the “effect of 8-Br cGMP treatment on CCh-induced Ca^2+ release” value was “markedly potentiated” and the “Ca^2+ release after PKG activation” value was “enhanced”.

Consider “S2+SE: phosphomimetic S2+ InsP3R-1, long splice variant of S1755E”, for which, in the assay on S2+ InsP3R-1 [1], the “effect of forskolin treatment on CCh-induced [Ca^2+]i peak” value is given as “no further potentiation” and the “Ca^2+ release after PKA activation” value is reported as “No change”. Further, in the assay on S2+ InsP3R-1 [2], the “effect of 8-Br cGMP treatment on CCh-induced Ca^2+ release” value is “no effect; also recorded: no potentiation” and the “Ca^2+ release after PKG activation” value is reported as “no change”.

For the origin of these results see US20080039410A1, “Inositol 1,4,5-Trisphosphate Receptor Mutants and Uses Thereof” (priority 2004, published 2008).
